What all share (format): cell-based
In test [1] the test system is Streptococcus faecalis ATCC 10541. Put plainly: MIC, two-fold dilution method, Streptococcus faecalis ATCC 10541. Particulars: 10^6 CFU per ml, 37° C., 18 to 20 hours; for MIC: Enterococcus faecalis, ATCC10541, Muller Hinton Broth, read-out: Antibacterial Activity (MIC); for Antibacterial Activity (MIC): Muller Hinton Broth. The protocol:
(§1) In order to illustrate the usefulness of the invented compounds, the minimal inhibitory concentrations-(MIC) thereof against standard strains were determined and compared with Cefotaxime, a known compound. Also, the in vitro antibacterial activity was determined by a two-fold dilution method as described below: That is, the two-fold serial dilutions of the compound were made and dispersed in Muller Hinton Broth medium. Standard test strain which had the 10^6 CFU per ml was inoculated on the medium, and was incubated at 37° C. for 18 to 20 hours.

The subject of test [2] is Klebsiella pneumoniae ATCC 10031. As to the kind of experiment: MIC, two-fold dilution method, Klebsiella pneumoniae ATCC 10031. To be noted: 10^6 CFU per ml, 37° C., 18 to 20 hours; for MIC: ATCC10031, Muller Hinton Broth, read-out: Antibacterial Activity (MIC); for Antibacterial Activity (MIC): Muller Hinton Broth. The protocol: as §1
For test [3], the system named is Staphylococcus aureus ATCC 65389. As to the kind of experiment: MIC, two-fold dilution method, Staphylococcus aureus ATCC 65389. Particulars: 10^6 CFU per ml, 37° C., 18 to 20 hours; for MIC: ATCC65389, Muller Hinton Broth, read-out: Antibacterial Activity (MIC); for Antibacterial Activity (MIC): Muller Hinton Broth. The protocol:
as §1

Test [4] concerns Bacillus subtilis ATCC 6633. Put plainly: MIC, two-fold dilution method, Bacillus subtilis ATCC 6633. Particulars: 10^6 CFU per ml, 37° C., 18 to 20 hours; for MIC: ATCC6633, Muller Hinton Broth, read-out: Antibacterial Activity (MIC); for Antibacterial Activity (MIC): Muller Hinton Broth. The protocol: as §1
Test [5] deals with Esherichia coli ATCC 25922. Put plainly: MIC, two-fold dilution method, Esherichia coli ATCC 25922. To be noted: Muller Hinton Broth, 10^6 CFU per ml, 37° C., 18 to 20 hours; for MIC: read-out: Antibacterial Activity (MIC). The protocol:
as §1

The subject of test [6] is Pseudomonas aeurginosa NCTC 10490. Put plainly: MIC, two-fold dilution method, Pseudomonas aeurginosa NCTC 10490. To be noted: 10^6 CFU per ml, 37° C., 18 to 20 hours; for MIC: NCTC10490, Muller Hinton Broth, read-out: Antibacterial Activity (MIC); for Antibacterial Activity (MIC): Muller Hinton Broth. The protocol:
as §1

Test [7] has as its system Staphylococcus epidermidis ATCC 12228. Put plainly: MIC, two-fold dilution method, Staphylococcus epidermidis ATCC 12228. Particulars: 10^6 CFU per ml, 37° C., 18 to 20 hours; for MIC: ATCC12228, Muller Hinton Broth, read-out: Antibacterial Activity (MIC); for Antibacterial Activity (MIC): Muller Hinton Broth. The protocol: as §1

Each structure is given as a SMILES string. Converted amounts (≈) assume the structure as drawn.

A word on the MIC: it is the lowest concentration found to suppress growth. In the case of `C#CCO/N=C(\C(=O)NC1C(=O)N2C(C(=O)[O-])=C(CSc3cc[n+](C4CC4)c4cc(N5CCNCC5)c(F)cc34)CS[C@H]12)c1csc(N)n1` (stereo partly shown) [Compound I-41, 7-[(Z)-2-(2-aminothiazol-4-yl)-2-(propargyloxyimino)acetamido]-3-(1-cyclopropyl-6-fluoro-7-piperazinylquinolinium-4-yl)thiomethyl-3-cephem-4-carboxylate], the MIC in test [1] was 0.39 µg/mL (≈ 0.54 µM); in test [2], 6.25 µg/mL (≈ 8.65 µM); in test [3], 0.78 µg/mL (≈ 1.08 µM); in test [4], 0.2 µg/mL (≈ 0.277 µM); in test [5], 3.13 µg/mL (≈ 4.33 µM); in test [6] it was 3.13 µg/mL (≈ 4.33 µM). Further, in test [7], the minimum inhibitory concentration (MIC) amounted to 0.78 µg/mL (≈ 1.08 µM).
In the case of `C#CCO/N=C(\C(=O)NC1C(=O)N2C(C(=O)[O-])=C(CSc3cc[n+](C4CC4)c4cc(N5CCN(CC)CC5)c(F)cc34)CSC12)c1csc(N)n1` (stereo not shown) [Compound I-43], the MIC in test [1] was 0.05 µg/mL (≈ 0.0666 µM); in test [2], 0.78 µg/mL (≈ 1.04 µM); in test [3], 0.1 µg/mL (≈ 0.133 µM); in test [4] it was 0.1 µg/mL (≈ 0.133 µM); in test [5], 1.56 µg/mL (≈ 2.08 µM); in test [6], 0.78 µg/mL (≈ 1.04 µM). The MIC in test [7] was 0.1 µg/mL (≈ 0.133 µM).
In the case of `C=CCO/N=C(\C(=O)NC1C(=O)N2C(C(=O)[O-])=C(CSc3cc[n+](CC)c4cc(N5CCN(CC)CC5)c(F)cc34)CSC12)c1csc(N)n1` (stereo not shown) [Compound I-31], the minimal inhibitory concentration (MIC) in test [1] stood at 0.39 µg/mL (≈ 0.526 µM); in test [2] it was 0.39 µg/mL (≈ 0.526 µM); in test [3] it was 0.39 µg/mL (≈ 0.526 µM); in test [4], 0.2 µg/mL (≈ 0.27 µM); in test [5], 0.78 µg/mL (≈ 1.05 µM); in test [6] it was 0.78 µg/mL (≈ 1.05 µM). For the same compound, in test [7], the MIC came to 0.78 µg/mL (≈ 1.05 µM).
Consider `CCN1CCN(c2cc3c(cc2F)c(SCC2=C(C(=O)[O-])N4C(=O)C(NC(=O)/C(=N\OC)c5csc(N)n5)C4SC2)cc[n+]3C)CC1` (stereo not shown) [Compound I-3, 7-[(Z)-2-(2-aminothiazol-4-yl)-2-(methoxyimino)acetamido]-3-[1-methyl-6-fluoro-7-(1-ethylpiperazinyl)quinolinium-4-yl]thiomethyl-3-cephem-4-carboxylate], for which the MIC in test [1] worked out at 0.025 µg/mL (≈ 0.0357 µM); in test [2], 0.1 µg/mL (≈ 0.143 µM); in test [3], 0.05 µg/mL (≈ 0.0713 µM); in test [4], 0.2 µg/mL (≈ 0.285 µM); in test [5], 0.78 µg/mL (≈ 1.11 µM); in test [6], 0.78 µg/mL (≈ 1.11 µM). The minimal inhibitory concentration (MIC) in test [7] stood at 0.1 µg/mL (≈ 0.143 µM).
Regarding `CO/N=C(\C(=O)NC1C(=O)N2C(C(=O)[O-])=C(CSc3cc[n+](C)c4cc(N5CCNCC5C)c(F)cc34)CSC12)c1csc(N)n1` (stereo not shown) [Compound I-4, 7-[(Z)-2-(2-aminothiazol-4-yl)-2-(methoxyimino)acetamido]-3-(1-methyl-6-fluoro-7-(2-methyl)piperazinylquinolinium-4-yl]thiomethyl-3-cephem-4-carboxylate], the “Antibacterial Activity (MIC)” value in test [1] was 0.05 µg/mL; in test [2], 0.1 µg/mL; in test [3] it was 0.1 µg/mL; in test [4], 0.1 µg/mL; in test [5], 0.78 µg/mL; in test [6] it was 0.78 µg/mL. In addition, the “Antibacterial Activity (MIC)” value in test [7] is 0.2 µg/mL.
As for `CO/N=C(\C(=O)N[C@@H]1C(=O)N2C(C(=O)O)=C(COC(C)=O)CS[C@H]12)c1csc(N)n1` [CTX, Cefotaxime, reference compound], the MIC turned out to be 0.39 µg/mL (≈ 0.856 µM) in test [1]; 0.39 µg/mL (≈ 0.856 µM) in test [2]; 0.78 µg/mL (≈ 1.71 µM) in test [3]; 0.2 µg/mL (≈ 0.439 µM) in test [4]; 0.78 µg/mL (≈ 1.71 µM) in test [5]; 1.56 µg/mL (≈ 3.43 µM) in test [6]. For the same compound, in test [7], the MIC is 0.78 µg/mL (≈ 1.71 µM).
As for `C=CCO/N=C(\C(=O)NC1C(=O)N2C(C(=O)[O-])=C(CSc3cc[n+](CC)c4cc(N5CCN(C)CC5)c(F)cc34)CSC12)c1csc(N)n1` (stereo not shown) [Compound I-30, 7-[(Z)-2-(2-aminothiazol-4-yl)-2-(allyloxyimino)acetamido]-3-[1-ethyl-6-fluoro-7-(N-methylpiperazinyl)quinolinium-4-yl]thiomethyl-3-cephem-4-carboxylate], the MIC stood at 0.39 µg/mL (≈ 0.537 µM) in test [1]; 0.78 µg/mL (≈ 1.07 µM) in test [2]; 1.56 µg/mL (≈ 2.15 µM) in test [3]; 0.39 µg/mL (≈ 0.537 µM) in test [4]; 3.13 µg/mL (≈ 4.31 µM) in test [5]; 6.25 µg/mL (≈ 8.6 µM) in test [6]. In addition, the MIC in test [7] amounted to 0.78 µg/mL (≈ 1.07 µM).
As for `CCN1CCN(c2cc3c(cc2F)c(SCC2=C(C(=O)[O-])N4C(=O)C(NC(=O)/C(=N\OC(C)(C)C(=O)O)c5csc(N)n5)C4SC2)cc[n+]3C)CC1` (stereo not shown) [Compound I-55, 7-[(Z)-2-(2-aminothiazol-4-yl)-2-(2-carboxyprop-2-oxyimino)acetamido]-3-[1-methyl-6-fluoro-7-(1-ethylpiperazinyl)quinolinium-4-yl]thiomethyl-3-cephem4-carboxylate], the MIC in test [1] was 0.2 µg/mL (≈ 0.259 µM); in test [2], 0.39 µg/mL (≈ 0.505 µM); in test [3] it was 1.56 µg/mL (≈ 2.02 µM); in test [4], 0.2 µg/mL (≈ 0.259 µM); in test [5], 0.78 µg/mL (≈ 1.01 µM); in test [6], 0.39 µg/mL (≈ 0.505 µM). Besides, the minimum inhibitory concentration (MIC) in test [7] was 0.78 µg/mL (≈ 1.01 µM).
As for `CO/N=C(\C(=O)NC1C(=O)N2C(C(=O)[O-])=C(CSc3cc[n+](C)c4cc(N5CCN(C)CC5)c(F)cc34)CSC12)c1csc(N)n1` (stereo not shown) [Compound I-2, 7-[(Z)-2-(2-aminothiazol-4-yl)-2-(methoxyimino)acetamido]-3-[1-methyl-6-fluoro-7-(N-methylpiperazinyl)quinolinium-4-yl]thiomethyl-3-cephem-4-carboxylate], the MIC in test [1] came out at 0.39 µg/mL (≈ 0.568 µM); in test [2], 0.39 µg/mL (≈ 0.568 µM); in test [3] it was 1.56 µg/mL (≈ 2.27 µM); in test [4] it was 0.39 µg/mL (≈ 0.568 µM); in test [5] it was 12.5 µg/mL (≈ 18.2 µM); in test [6], 3.13 µg/mL (≈ 4.56 µM). Moreover, in test [7], the MIC is 0.78 µg/mL (≈ 1.14 µM).
As to `C=CC[n+]1ccc(SCC2=C(C(=O)[O-])N3C(=O)C(NC(=O)/C(=N\OC)c4csc(N)n4)C3SC2)c2cc(F)c(N3CCNCC3C)cc21` (stereo not shown) [Compound I-16, 7-[(Z)-2-(2-aminothiazol-4-yl)-2-(methoxyimino)acetamido]-3-[1-allyl-6-fluoro-7-(2-methylpiperazinyl)quinolinium-4-yl]thiomethyl 3-cephem-4-carboxylate], the “Antibacterial Activity (MIC)” value was 0.78 µg/mL in test [1]; 0.39 µg/mL in test [2]; 0.2 µg/mL in test [3]; 0.2 µg/mL in test [4]; 1.56 µg/mL in test [5]; 1.56 µg/mL in test [6]. In addition, the “Antibacterial Activity (MIC)” value in test [7] stood at 0.39 µg/mL.
As to `C=CC[n+]1ccc(SCC2=C(C(=O)[O-])N3C(=O)C(NC(=O)/C(=N\OC(C)(C)C(=O)O)c4csc(N)n4)[C@H]3SC2)c2cc(F)c(N3CCNCC3C)cc21` (stereo partly shown) [Compound I-64, 7-[(Z)-2-(2-aminothiazol-4-yl)-2-(2-carboxyprop-2-oxyimino)acetamido]-3-[1-allyl-6-fluoro-7-(2-methylpiperazinyl)quinolinium-4-yl]thiomethyl-3-cephem-4-carboxylate], the “Antibacterial Activity (MIC)” value in test [1] stood at 0.39 µg/mL; in test [2], 1.56 µg/mL; in test [3] it was 3.13 µg/mL; in test [4], 1.56 µg/mL; in test [5], 1.56 µg/mL; in test [6] it was 3.13 µg/mL. The “Antibacterial Activity (MIC)” value in test [7] stood at 1.56 µg/mL.
`C#CCO/N=C(\C(=O)NC1C(=O)N2C(C(=O)[O-])=C(CSc3cc[n+](CC)c4cc(N5CCN(C)CC5)c(F)cc34)CSC12)c1csc(N)n1` (stereo not shown) [Compound I-46, 7-[(Z)-2-(2-aminothiazol-4-yl)-2-(propargyloxyimino)acetamido]-3-[1-ethyl-6-fluoro-7-(N-methylpiperazinyl)quinolinium-4-yl]thiomethyl-3-cephem-4-carboxylate]: the minimal inhibitory concentration (MIC) in test [1] worked out at 0.2 µg/mL (≈ 0.276 µM); in test [2] it was 6.25 µg/mL (≈ 8.62 µM); in test [3] it was 0.78 µg/mL (≈ 1.08 µM); in test [4], 0.78 µg/mL (≈ 1.08 µM); in test [5] it was 12.5 µg/mL (≈ 17.2 µM); in test [6], 6.25 µg/mL (≈ 8.62 µM). Also, the MIC in test [7] came to 0.39 µg/mL (≈ 0.538 µM).
Turning to `Cc1cn(-c2cc3c(cc2F)c(SCC2=C(C(=O)[O-])N4C(=O)C(NC(=O)/C(=N\OC(C)(C)C(=O)O)c5csc(N)n5)[C@H]4SC2)cc[n+]3C2CC2)cn1` (stereo partly shown) [Compound I-68, 7-[(Z)-2-(2-aminothiazol-4-yl)-2-(2-carboxyprop-2-oxyimino)acetamido]-3-[1-cyclopropyl-6-fluoro-7-(4-methylimidazolyl)quinolinium-4-yl]thiomethyl-3-cephem-4-carboxylate], the “Antibacterial Activity (MIC)” value was 0.2 µg/mL in test [1]; 0.78 µg/mL in test [2]; 1.56 µg/mL in test [3]; 0.78 µg/mL in test [4]; 1.56 µg/mL in test [5]; 0.78 µg/mL in test [6]. The “Antibacterial Activity (MIC)” value in test [7] came out at 1.56 µg/mL.

(Values after patent US5663331A, “Cephalosporin compounds” (Il-Dong Pharm. Co., Ltd., priority 1992, dated 1997).)
